{"source": "patent US9365584B2", "about": "“Thieno [2,3-B] pyridinedione activators of AMPK and therapeutic uses thereof” (Poxel, priority 2009, dated 2016)", "data": [{"tested_on": "AMPK", "assay": "AMPK enzyme activity assay (Delfia technology, AMARA peptide substrate)", "format": "biochemical", "conditions": "compound at 30 μM vs AMP at 200 μM", "outline": "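Value is the ratio of compound (30 μM) to AMP (200 μM) response, each as % of basal control. Phosphorylation of the AMARA peptide after AMPK addition was read by Delfia with an anti-phosphoserine antibody.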", "values": [{"smiles": "COc1cccc(-c2c(Cl)sc3c2C(=O)C(F)(c2ccccc2)C(=O)N3)c1", "note": "(centres unmarked) [No 94, 2-chloro-5-fluoro-3-(3-methoxyphenyl)-5-phenyl-7H-thieno[2,3-b]pyridine-4,6-dione]", "Activity: Ratio between the % of control (basal activity) of compound of formula (1) at 30 μM and the % of control (basal activity) of AMP (natural substrate) at 200 μM": "C (C≧75%)"}, {"smiles": "Cc1ccc(-c2csc3c2C(=O)C(F)(c2ccccc2)C(=O)N3)c(O)c1", "note": "(centres unmarked) [No 121, 5-fluoro-3-(2-hydroxy-4-methyl-phenyl)-5-phenyl-7H-thieno[2,3-b]pyridine-4,6-dione]", "Activity: Ratio between the % of control (basal activity) of compound of formula (1) at 30 μM and the % of control (basal activity) of AMP (natural substrate) at 200 μM": "C (C≧75%)"}, {"smiles": "O=C1Nc2sc(Cl)c(-c3ccccc3Cl)c2C(=O)C1(F)c1ccccc1", "note": "(centres unmarked) [No 101, 2-chloro-3-(2-chlorophenyl)-5-fluoro-5-phenyl-7H-thieno[2,3-b]pyridine-4,6-dione]", "Activity: Ratio between the % of control (basal activity) of compound of formula (1) at 30 μM and the % of control (basal activity) of AMP (natural substrate) at 200 μM": "B (50%≦B<75%)"}, {"smiles": "Cc1ccc(-c2csc3c2C(=O)C(F)(c2ccccc2)C(=O)N3)cc1O", "note": "(centres unmarked) [No 115, 5-fluoro-3-(3-hydroxy-4-methyl-phenyl)-5-phenyl-7H-thieno[2,3-b]pyridine-4,6-dione]", "Activity: Ratio between the % of control (basal activity) of compound of formula (1) at 30 μM and the % of control (basal activity) of AMP (natural substrate) at 200 μM": "C (C≧75%)"}, {"smiles": "CS(=O)(=O)c1cccc(-c2csc3c2C(=O)C(F)(c2ccccc2)C(=O)N3)c1", "note": "(centres unmarked) [No 120, 5-fluoro-3-(3-methylsulfonylphenyl)-5-phenyl-7H-thieno[2,3-b]pyridine-4,6-dione]", "Activity: Ratio between the % of control (basal activity) of compound of formula (1) at 30 μM and the % of control (basal activity) of AMP (natural substrate) at 200 μM": "A (0%<A<50%)"}, {"smiles": "O=C1Nc2scc(-c3ccc(F)cc3F)c2C(=O)C1(F)c1ccccc1", "note": "(centres unmarked) [No 179, 3-(2,4-difluorophenyl)-5-fluoro-5-phenyl-7H-thieno[2,3-b]pyridine-4,6-dione]", "Activity: Ratio between the % of control (basal activity) of compound of formula (1) at 30 μM and the % of control (basal activity) of AMP (natural substrate) at 200 μM": "A (0%<A<50%)"}, {"smiles": "CC(C)(C)c1ccc(-c2csc3c2C(=O)C(F)(c2ccccc2)C(=O)N3)cc1", "note": "(centres unmarked) [No 142, 3-(4-tert-butylphenyl)-5-fluoro-5-phenyl-7H-thieno[2,3-b]pyridine-4,6-dione]", "Activity: Ratio between the % of control (basal activity) of compound of formula (1) at 30 μM and the % of control (basal activity) of AMP (natural substrate) at 200 μM": "A (0%<A<50%)"}, {"smiles": "COc1ccccc1C1(F)C(=O)Nc2scc(-c3ccccc3)c2C1=O", "note": "(centres unmarked) [No 207, 5-fluoro-5-(2-methoxyphenyl)-3-phenyl-7H-thieno[2,3-b]pyridine-4,6-dione]", "Activity: Ratio between the % of control (basal activity) of compound of formula (1) at 30 μM and the % of control (basal activity) of AMP (natural substrate) at 200 μM": "A (0%<A<50%)"}, {"smiles": "Cc1ccc(-c2c(Cl)sc3c2C(=O)C(Cl)(c2ccccc2)C(=O)N3)c(O)c1F", "note": "(centres unmarked) [No 232, 2,5-dichloro-3-(3-fluoro-2-hydroxy-4-methyl-phenyl)-5-phenyl-7H-thieno[2,3-b]pyridine-4,6-dione]", "Activity: Ratio between the % of control (basal activity) of compound of formula (1) at 30 μM and the % of control (basal activity) of AMP (natural substrate) at 200 μM": "C (C≧75%)"}, {"smiles": "CCOc1c(F)ccc(-c2c(Cl)sc3c2C(=O)C(C)(c2ccccc2)C(=O)N3)c1OC", "note": "(centres unmarked) [No 12, 2-chloro-3-(3-ethoxy-4-fluoro-2-methoxy-phenyl)-5-methyl-5-phenyl-7H-thieno[2,3-b]pyridine-4,6-dione]", "Activity: Ratio between the % of control (basal activity) of compound of formula (1) at 30 μM and the % of control (basal activity) of AMP (natural substrate) at 200 μM": "A (0%<A<50%)"}, {"smiles": "O=C1Nc2scc(-c3ccccc3F)c2C(=O)C1(F)c1ccccc1", "note": "(centres unmarked) [No 177, 5-fluoro-3-(2-fluorophenyl)-5-phenyl-7H-thieno[2,3-b]pyridine-4,6-dione]", "Activity: Ratio between the % of control (basal activity) of compound of formula (1) at 30 μM and the % of control (basal activity) of AMP (natural substrate) at 200 μM": "A (0%<A<50%)"}, {"smiles": "COc1ccc(-c2c(Cl)sc3c2C(=O)C(C)(c2ccc(F)cc2)C(=O)N3)cc1", "note": "(centres unmarked) [No 39, 2-chloro-5-(4-fluorophenyl)-3-(4-methoxyphenyl)-5-methyl-7H-thieno[2,3-b]pyridine-4,6-dione]", "Activity: Ratio between the % of control (basal activity) of compound of formula (1) at 30 μM and the % of control (basal activity) of AMP (natural substrate) at 200 μM": "A (0%<A<50%)"}, {"smiles": "COc1cccc(C2(C)C(=O)Nc3sc(Cl)c(-c4ccc(F)cc4)c3C2=O)c1", "note": "(centres unmarked) [No 63, 2-chloro-3-(4-fluorophenyl)-5-(3-methoxyphenyl)-5-methyl-7H-thieno[2,3-b]pyridine-4,6-dione]", "Activity: Ratio between the % of control (basal activity) of compound of formula (1) at 30 μM and the % of control (basal activity) of AMP (natural substrate) at 200 μM": "C (C≧75%)"}, {"smiles": "Cc1cccc(-c2c(Cl)sc3c2C(=O)C(F)(c2ccccc2)C(=O)N3)c1O", "note": "(centres unmarked) [No 213, 2-chloro-5-fluoro-3-(2-hydroxy-3-methyl-phenyl)-5-phenyl-7H-thieno[2,3-b]pyridine-4,6-dione]", "Activity: Ratio between the % of control (basal activity) of compound of formula (1) at 30 μM and the % of control (basal activity) of AMP (natural substrate) at 200 μM": "C (C≧75%)"}, {"smiles": "CC1(c2ccc(S(C)(=O)=O)cc2)C(=O)Nc2sc(Cl)c(-c3cccc(F)c3)c2C1=O", "note": "(centres unmarked) [No 149, 2-chloro-3-(3-fluorophenyl)-5-methyl-5-(4-methyl-sulfonylphenyl)-7H-thieno[2,3-b]pyridine-4,6-dione]", "Activity: Ratio between the % of control (basal activity) of compound of formula (1) at 30 μM and the % of control (basal activity) of AMP (natural substrate) at 200 μM": "A (0%<A<50%)"}, {"smiles": "Cc1ccc(-c2c(Cl)sc3c2C(=O)C(C)(c2cccc(F)c2)C(=O)N3)cc1", "note": "(centres unmarked) [No 45, 2-chloro-5-(3-fluorophenyl)-5-methyl-3-(p-tolyl)-7H-thieno[2,3-b]pyridine-4,6-dione]", "Activity: Ratio between the % of control (basal activity) of compound of formula (1) at 30 μM and the % of control (basal activity) of AMP (natural substrate) at 200 μM": "A (0%<A<50%)"}, {"smiles": "COc1cccc(C2(C)C(=O)Nc3sc(Cl)c(-c4ccccc4F)c3C2=O)c1", "note": "(centres unmarked) [No 76, 2-chloro-3-(2-fluorophenyl)-5-(3-methoxyphenyl)-5-methyl-7H-thieno[2,3-b]pyridine-4,6-dione]", "Activity: Ratio between the % of control (basal activity) of compound of formula (1) at 30 μM and the % of control (basal activity) of AMP (natural substrate) at 200 μM": "A (0%<A<50%)"}, {"smiles": "CC1(c2ccccc2F)C(=O)Nc2sc(Cl)c(-c3ccccc3F)c2C1=O", "note": "(centres unmarked) [No 89, 2-chloro-3,5-bis(2-fluorophenyl)-5-methyl-7H-thieno[2,3-b]pyridine-4,6-dione]", "Activity: Ratio between the % of control (basal activity) of compound of formula (1) at 30 μM and the % of control (basal activity) of AMP (natural substrate) at 200 μM": "A (0%<A<50%)"}, {"smiles": "O=C1Nc2scc(-c3cccc(Br)c3)c2C(=O)C1(F)c1ccccc1", "note": "(centres unmarked) [No 163, 3-(3-bromophenyl)-5-fluoro-5-phenyl-7H-thieno[2,3-b]pyridine-4,6-dione]", "Activity: Ratio between the % of control (basal activity) of compound of formula (1) at 30 μM and the % of control (basal activity) of AMP (natural substrate) at 200 μM": "B (50%≦B<75%)"}, {"smiles": "O=C1Nc2scc(-c3ccncc3)c2C(=O)C1(F)c1ccccc1", "note": "(centres unmarked) [No 208, 5-fluoro-5-phenyl-3-(4-pyridyl)-7H-thieno[2,3-b]pyridine-4,6-dione]", "Activity: Ratio between the % of control (basal activity) of compound of formula (1) at 30 μM and the % of control (basal activity) of AMP (natural substrate) at 200 μM": "A (0%<A<50%)"}, {"smiles": "Cc1sc2c(c1-c1ccc(F)cc1O)C(=O)C(F)(c1ccccc1)C(=O)N2", "note": "(centres unmarked) [No 220, 5-fluoro-3-(4-fluoro-2-hydroxy-phenyl)-2-methyl-5-phenyl-7H-thieno[2,3-b]pyridine-4,6-dione]", "Activity: Ratio between the % of control (basal activity) of compound of formula (1) at 30 μM and the % of control (basal activity) of AMP (natural substrate) at 200 μM": "B (50%≦B<75%)"}, {"smiles": "COc1ccc(C2(C)C(=O)Nc3sc(Cl)c(-c4ccccc4F)c3C2=O)cc1", "note": "(centres unmarked) [No 84, 2-chloro-3-(2-fluorophenyl)-5-(4-methoxyphenyl)-5-methyl-7H-thieno[2,3-b]pyridine-4,6-dione]", "Activity: Ratio between the % of control (basal activity) of compound of formula (1) at 30 μM and the % of control (basal activity) of AMP (natural substrate) at 200 μM": "B (50%≦B<75%)"}, {"smiles": "Cc1cccc(C2(C)C(=O)Nc3sc(Cl)c(-c4cccc(F)c4)c3C2=O)c1", "note": "(centres unmarked) [No 106, 2-chloro-3-(3-fluorophenyl)-5-methyl-5-(m-tolyl)-7H-thieno[2,3-b]pyridine-4,6-dione]", "Activity: Ratio between the % of control (basal activity) of compound of formula (1) at 30 μM and the % of control (basal activity) of AMP (natural substrate) at 200 μM": "A (0%<A<50%)"}]}]}
